Assay results as given in patent US20240124432A1, “HERBICIDAL COMPOUNDS” (SYNGENTA CROP PROTECTION AG, priority 2020, published 2024).

Experiments:
Format in all cases: in vivo
DIGSA = test: Post-emergence biological efficacy; conditions: Digitaria sanguinalis, 312 h, evaluated after 13 days, read-out: damage to plant (100=total damage to plant; 0=no damage to plant)
Summary of the method: (§1)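 Damage was rated 13 days after treatment, from 0 (none) to 100 (total). Test compounds, formulated in IF50 and diluted with 0.2% Genapol XO80 to final dose, were sprayed on glasshouse plants raised for 14 days from seed.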

AMAPA [1] = test: Post-emergence biological efficacy; conditions: Amaranthus palmeri, 312 h, evaluated after 13 days, read-out: damage to plant (100=total damage to plant; 0=no damage to plant)
Summary of the method: as §1

LOLPE [2] = test: Post-emergence biological efficacy; conditions: Lolium perenne, 312 h, evaluated after 13 days, read-out: damage to plant (100=total damage to plant; 0=no damage to plant)
Summary of the method: as §1

EPHHL [3] = test: Post-emergence biological efficacy; conditions: Euphorbia heterophylla, 312 h, evaluated after 13 days, read-out: damage to plant (100=total damage to plant; 0=no damage to plant)
Summary of the method: as §1

ECHCG [4] = test: Post-emergence biological efficacy; conditions: Echinochloa crus-galli, 312 h, evaluated after 13 days, read-out: damage to plant (100=total damage to plant; 0=no damage to plant)
Summary of the method: as §1

SETFA [5] = test: Post-emergence biological efficacy; conditions: Setaria faberi, 312 h, evaluated after 13 days, read-out: damage to plant (100=total damage to plant; 0=no damage to plant)
Summary of the method: as §1

CHEAL = test: Post-emergence biological efficacy; conditions: Chenopodium album, 312 h, evaluated after 13 days, read-out: damage to plant (100=total damage to plant; 0=no damage to plant)
Summary of the method: as §1

IPOHE [6] = test: Post-emergence biological efficacy; conditions: Ipomoea hederacea, 312 h, evaluated after 13 days, read-out: damage to plant (100=total damage to plant; 0=no damage to plant)
Summary of the method: as §1

ELEIN = test: Post-emergence biological efficacy; conditions: 312 h, evaluated after 13 days, read-out: damage to plant (100=total damage to plant; 0=no damage to plant)
Summary of the method: as §1

AMAPA [7] = test: Pre-emergence biological efficacy; conditions: Amaranthus palmeri, 312 h, evaluated after 13 days, read-out: damage to plant (100=total damage to plant; 0=no damage to plant)
Summary of the method: (§2)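 Sow in pots → 1 d glasshouse, 24/19 °C, 16 h light → spray compound (IF50/acetone formulation, 0.2% Genapol XO80 diluent) → grow 24/18 °C, 15 h light, 50% RH, water 2×/day → score damage 0–100 at 13 d.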

LOLPE [8] = test: Pre-emergence biological efficacy; conditions: Lolium perenne, 312 h, evaluated after 13 days, read-out: damage to plant (100=total damage to plant; 0=no damage to plant)
Summary of the method: as §2

EPHHL [9] = test: Pre-emergence biological efficacy; conditions: Euphorbia heterophylla, 312 h, evaluated after 13 days, read-out: damage to plant (100=total damage to plant; 0=no damage to plant)
Summary of the method: as §2

ECHCG [10] = test: Pre-emergence biological efficacy; conditions: Echinochloa crus-galli, 312 h, evaluated after 13 days, read-out: damage to plant (100=total damage to plant; 0=no damage to plant)
Summary of the method: as §2

SETFA [11] = test: Pre-emergence biological efficacy; conditions: Setaria faberi, 312 h, evaluated after 13 days, read-out: damage to plant (100=total damage to plant; 0=no damage to plant)
Summary of the method: as §2

IPOHE [12] = test: Pre-emergence biological efficacy; conditions: Ipomoea hederacea, 312 h, evaluated after 13 days, read-out: damage to plant (100=total damage to plant; 0=no damage to plant)
Summary of the method: as §2

SMILES | pest or weed control at 250 g/ha (DIGSA) [%] | pest or weed control at 250 g/ha (AMAPA [1]) [%] | pest or weed control at 250 g/ha (LOLPE [2]) [%] | pest or weed control at 250 g/ha (EPHHL [3]) [%] | pest or weed control at 250 g/ha (ECHCG [4]) [%] | pest or weed control at 250 g/ha (SETFA [5]) [%] | pest or weed control at 250 g/ha (CHEAL) [%] | pest or weed control at 250 g/ha (IPOHE [6]) [%] | pest or weed control at 250 g/ha (ELEIN) [%] | pest or weed control at 250 g/ha (AMAPA [7]) [%] | pest or weed control at 250 g/ha (LOLPE [8]) [%] | pest or weed control at 250 g/ha (EPHHL [9]) [%] | pest or weed control at 250 g/ha (ECHCG [10]) [%] | pest or weed control at 250 g/ha (SETFA [11]) [%] | pest or weed control at 250 g/ha (IPOHE [12]) [%]
CCOC(=O)C1(C)CC(c2cc(-c3nccnc3C)c(F)cc2Cl)=NO1 (stereo not drawn) [Compound 1-775, Ethyl 3-[2-chloro-4-fluoro-5-(3-methylpyrazin-2-yl)phenyl]-5-methyl-4H-isoxazole-5-carboxylate] | 20 | 60 | 0 | 40 | 20 | 50 | 60 | 30 | 50 | 0 | 0 | 0 | 0 | 0 | 0
CCOC(=O)C1(C)CC(c2cc(-c3nc(C)cnc3C)c(F)cc2Cl)=NO1 (stereo not drawn) [Compound 1-787, Ethyl 3-[2-chloro-5-(3,6-dimethylpyrazin-2-yl)-4-fluoro-phenyl]-5-methyl-4H-isoxazole-5-carboxylate] | 40 | 50 | 20 | 40 | 40 | 40 | 60 | 50 | 60 | 10 | 20 | 10 | 20 | 20 | 10
CCOC(=O)C1(C)CC(c2cc(-c3ncc(C(F)(F)F)nc3Cl)c(F)cc2Cl)=NO1 (stereo not drawn) [Compound 1-811, Ethyl 3-[2-chloro-5-[3-chloro-5-(trifluoromethyl)pyrazin-2-yl]-4-fluoro-phenyl]-5-methyl-4H-isoxazole-5-carboxylate] | 40 | 80 | 70 | 80 | 50 | 100 | 60 | 70 | 90 | 100 | 10 | 100 | 70 | 50 | 0
CCOC(=O)C1(C)CC(c2cc(-c3nccnc3C(F)(F)F)c(F)cc2Cl)=NO1 (stereo not drawn) [Compound 1-823, Ethyl 3-[2-chloro-4-fluoro-5-[3-(trifluoromethyl)pyrazin-2-yl]phenyl]-5-methyl-4H-isoxazole-5-carboxylate] | 50 | 60 | 10 | 60 | 70 | 60 | 60 | 60 | 30 | 0 | 20 | 40 | 20 | 20 | 90
CCOC(=O)C1(C)CC(c2cc(-c3cnc4c(c3)OC(F)(F)O4)ccc2C#N)=NO1 (stereo not drawn) [Compound 2-451, Ethyl 3-[2-cyano-5-(2,2-difluoro-[1,3]dioxolo[4,5-b]pyridin-6-yl)phenyl]-5-methyl-4H-isoxazole-5-carboxylate] | 50 | 40 | 20 | 70 | 30 | 40 | 50 | 30 | 70 | 90 | 40 | 0 | 60 | 70 | 0
